Target: T1, human Cereblon WT GST-tagged protein (Homo sapiens, UniProt Q96SW2)
T1 construct: purchased CISBIO 64BDCRBNPEH
Assay: CRBN binding, HTRF (CEREBLON BINDING kit)
Conditions: HTRF; for inhibition at 0.5 µM / inhibition at 2 µM: Table II-2, CRBN binding screening; for inhibition at 0.5 µM: read-out: Inhibition rate (%) at 0.5µM; for inhibition at 2 µM: read-out: Inhibition rate (%) at 2 µM
Experimental: The CEREBLON BINDING kits (specification: 10,000 tests; product number: Catalog # 64BDCRBNPEH; CISBIO company) was used to determine the CRBN binding ability of the compounds to be tested through a HTRF method (homogeneous time-resolved fluorescence). The specific methods are as follows: • 1. […] Then, 2.5 µL of human Cereblon WT GST-tagged protein solution was added to each well. Finally, 5 µL of the thoroughly mixed Thalidomide-Re reagent and GST Eu antibody working solution were added to each of the aforementioned wells. […] The blank control wells were sequentially added with 2.5 µL of diluent #9 (1X) solution, 2.5 µL of binding buffer, and 5 µL of thoroughly mixed Thalidomide-Re reagent and GST Eu antibody working solution. • 4. After sealing and incubating the solutions in the aforementioned wells at room temperature for 3 hours, the […] at emission wavelengths of 620 nm and 665 nm were detected by the HTRF method using a Spark microplate reader (V3.1 SP1).

T1 sequence (Q96SW2 whole entry): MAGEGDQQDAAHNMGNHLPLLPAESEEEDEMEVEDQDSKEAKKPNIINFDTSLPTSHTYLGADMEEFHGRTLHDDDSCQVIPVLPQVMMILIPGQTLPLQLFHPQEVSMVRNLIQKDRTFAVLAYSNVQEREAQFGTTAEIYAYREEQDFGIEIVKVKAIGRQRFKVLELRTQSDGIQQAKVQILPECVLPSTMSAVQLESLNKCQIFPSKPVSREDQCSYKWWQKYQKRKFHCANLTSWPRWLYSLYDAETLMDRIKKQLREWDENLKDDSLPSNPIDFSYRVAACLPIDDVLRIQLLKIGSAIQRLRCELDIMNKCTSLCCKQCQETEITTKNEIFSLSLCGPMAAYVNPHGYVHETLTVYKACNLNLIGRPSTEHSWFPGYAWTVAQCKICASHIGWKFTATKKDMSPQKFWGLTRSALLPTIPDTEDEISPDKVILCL

SMILES | inhibition at 0.5 µM | inhibition at 2 µM | IC50 (Table II-1, CRBN binding)
CNC(=O)c1ccccc1Nc1cc(Nc2ccc(N3CCC(N(C)Cc4cc(C5CCC(=O)NC5=O)cnc4F)CC3)cc2OC)ncc1C(F)(F)F (centres unmarked) [GT-07656, 2-((2-((4-(4-(((5-(2,6-dioxopiperidin-3-yl)-2-fluoropyridin-3-yl)methyl)(methyl)amino)piperidin-1-yl)-2-methoxyphenyl)amino)-5-(trifluoromethyl)pyridin-4-yl)amino)-N-methylbenzamide] | 20 to 30% | 60 to 80% | 
O=C1CCC(c2cnc(F)c(CN3CCC(n4cc(NC(=O)c5cnn6ccc(N7C[C@H]8C[C@@H]7CO8)nc56)c(C(F)F)n4)CC3)c2)C(=O)N1 (stereo partly drawn) [GT-07775, 5-((1R,4R)-2-oxa-5-azabicyclo[2.2.1]heptan-5-yl)-N-(3-(difluoromethyl)-1-(1-((5-(2,6-dioxopiperidin-3-yl)-2-fluoropyridin-3-yl)methyl)piperidin-4-yl)-1H-pyrazol-4-yl)pyrazolo[1,5-a]pyrimidine-3-carboxamide] | 60 to 80% | 80 to 100% | 
CN(C)C(=O)c1cc2cnc(Nc3ccc(N4CCN(Cc5cc(C6CCC(=O)NC6=O)cnc5F)CC4)cn3)nc2n1C1CCCC1 (centres unmarked) [GT-07563, 7-cyclopentyl-2-((5-(4-((5-(2,6-dioxopiperidin-3-yl)-2-fluoropyridin-3-yl)methyl)piperazin-1-yl)pyridin-2-yl)amino)-N,N-dimethyl-7H-pyrrolo[2,3-d]pyrimidine-6-carboxamide] | 20 to 30% | 60 to 80% | 
Cc1ccc(C(=O)Nc2ccc(N3CCC(N(C)Cc4ccc(C5CCC(=O)NC5=O)cc4)CC3)c(C(F)(F)F)c2)cc1C#Cc1cnc2cccnn12 (centres unmarked) [GT-04106, N-(4-(4-((4-(2,6-dioxopiperidin-3-yl)benzyl)(methyl)amino)piperidin-1-yl)-3-(trifluoromethyl)phenyl)-3-(imidazo[1,2-b]pyridazin-3-ylethynyl)-4-methylbenzamide] | 40 to 53% | 60 to 80% | 
O=C1CCC(c2ccc(CN3CCC(n4cc(NC(=O)c5cnn6ccc(N7CCOCC7)nc56)c(C(F)F)n4)CC3)nc2)C(=O)N1 (centres unmarked) [GT-07769, N-(3-(difluoromethyl)-1-(1-((5-(2,6-dioxopiperidin-3-yl)pyridin-2-yl)methyl)piperidin-4-yl)-1H-pyrazol-4-yl)-5-morpholinopyrazolo[1,5-a]pyrimidine-3-carboxamide] | 40 to 53% | 80 to 100% | 
O=C1CCN(c2ccc(CN3CCN(C4CCN(c5ccc([C@@H]6c7ccc(O)cc7CC[C@@H]6c6ccccc6)cc5)CC4)CC3)cc2)C(=O)N1 [GT-04686, 1-(4-((4-(1-(4-((1R,2S)-6-hydroxy-2-phenyl-1,2,3,4-tetrahydronaphthalen-1-yl)phenyl)piperidin-4-yl)piperazin-1-yl)methyl)phenyl)dihydropyr imidine-2,4(1H,3H)-dione] |  |  | 1000 to 1900 nM
CC(C)(O)c1cc2nc(C3CCN(Cc4cc(C5CCC(=O)NC5=O)cnc4F)CC3)sc2cc1NC(=O)c1cccc(C(F)(F)F)n1 (centres unmarked) [GT-07621, N-(2-(1-((5-(2,6-dioxopiperidin-3-yl)-2-fluoropyridin-3-yl)methyl)piperidin-4-yl)-5-(2-hydroxypropan-2-yl)benzo[d]thiazol-6-yl)-6-(trifluoromethyl)picolinamide] | 53 to 60% | 60 to 80% | 
COc1cc2nn(C3CCN(Cc4ccc(C5CCC(=O)NC5=O)cn4)CC3)cc2cc1NC(=O)c1cccc(C(F)(F)F)n1 (centres unmarked) [GT-07534, N-(2-(1-((5-(2,6-dioxopiperidin-3-yl)pyridin-2-yl)methyl)piperidin-4-yl)-6-methoxy-2H-indazol-5-yl)-6-(trifluoromethyl)picolinamide] | 10 to 20% | 53 to 60% | 
CNC(=O)c1ccccc1Nc1cc(Nc2cc(C)c(C3CCN(Cc4cc(C5CCC(=O)NC5=O)cnc4F)CC3)cc2OC(C)C)ncc1C(F)(F)F (centres unmarked) [GT-07675, 2-((2-((4-(1-((5-(2,6-dioxopiperidin-3-yl)-2-fluoropyridin-3-yl)methyl)piperidin-4-yl)-2-isopropoxy-5-methylphenyl)amino)-5-(trifluoromethyl)pyridin-4-yl)amino)-N-methylbenzamide] | 40 to 53% | 60 to 80% | 
COc1cc(N2CCC(N3CCN(Cc4cc(N5CCC(=O)NC5=O)cnc4F)CC3)CC2)ccc1Nc1ncc(Cl)c(Nc2ccccc2P(C)(C)=O)n1 [GT-07759, 1-(5-((4-(1-(4-((5-chloro-4-((2-(dimethylphosphoryl)phenyl)amino)pyrimidin-2-yl)amino)-3-methoxyphenyl)piperidin-4-yl)piperazin-1-yl)methyl)-6-fluoropyridin-3-yl)dihydropyrimidine-2,4(1H,3H)-dione] | 30 to 40% | 53 to 60% | 
CN(c1nccnc1CNc1nc(Nc2ccc(N3CCN(Cc4cc(C5CCC(=O)NC5=O)cnc4F)CC3)cc2)ncc1C(F)(F)F)S(C)(=O)=O (centres unmarked) [GT-07397, N-(3-(((2-((4-(4-((5-(2,6-dioxopiperidin-3-yl)-2-fluoropyridin-3-yl)methyl)piperazin-1-yl)phenyl)amino)-5-(trifluoromethyl)pyrimidin-4-yl)amino)methyl)pyrazin-2-yl)-N-methylmethanesulfonamide] | 30 to 40% | 60 to 80% | 

Further lines, results first:

inhibition at 0.5 µM | inhibition at 2 µM | IC50 (Table II-1, CRBN binding) | SMILES
60 to 80% | 80 to 100% |  | O=C1CCN(c2cnc(F)c(CN3C[C@H]4C[C@@H]3CN4c3ccc(-c4cc(F)c5c(c4)C(=O)N(C(C(=O)Nc4nccs4)c4ncn6c4CCC6)C5)cc3)c2)C(=O)N1 (stereo partly drawn) [GT-07825, 2-(6,7-dihydro-5H-pyrrolo[1,2-c]imidazol-1-yl)-2-(6-(4-((1R,4R)-5-((5-(2,4-dioxotetrahydropyrimidin-1(2H)-yl)-2-fluoropyridin-3-yl)methyl)-2,5-diazabicyclo[2.2.1]heptan-2-yl)phenyl)-4-fluoro-1-oxoisoindolin-2-yl)-N-(thiazol-2-yl)acetamide]
10 to 20% | 53 to 60% |  | O=C1CCN(c2cnc(CN3C[C@H]4C[C@@H]3CN4c3ccc(-c4cc(F)c5c(c4)C(=O)N(C(C(=O)Nc4nccs4)c4ncn6c4CCC6)C5)cc3)cn2)C(=O)N1 (stereo partly drawn) [GT-07826, 2-(6,7-dihydro-5H-pyrrolo[1,2-c]imidazol-1-yl)-2-(6-(4-((1R,4R)-5-((5-(2,4-dioxotetrahydropyrimidin-1(2H)-yl)pyrazin-2-yl)methyl)-2,5-diazabicyclo[2.2.1]heptan-2-yl)phenyl)-4-fluoro-1-oxoisoindolin-2-yl)-N-(thiazol-2-yl)acetamide]
20 to 30% | 60 to 80% |  | O=C1CCN(c2cnc(F)c(CN3CCC(n4cc(NC(=O)c5cnn6ccc(N7CCOCC7)nc56)c(C(F)F)n4)CC3)c2)C(=O)N1 [GT-07789, N-(3-(difluoromethyl)-1-(1-((5-(2,4-dioxotetrahydropyrimidin-1(2H)-yl)-2-fluoropyridin-3-yl)methyl)piperidin-4-yl)-1H-pyrazol-4-yl)-5-morpholinopyrazolo[1,5-a]pyrimidine-3-carboxamide]
30 to 40% | 30 to 40% |  | CC1(C)CCC(c2ccc(Cl)cc2)=C(CN2CCN(c3ccc(C(=O)NS(=O)(=O)c4ccc(N[C@H](CCN5CC6CCC5CN6Cc5cccc(NC6CCC(=O)NC6=O)c5)CSc5ccccc5)c(S(=O)(=O)C(F)(F)F)c4)cc3)CC2)C1 (stereo partly drawn) [GT-07882, 4-(4-((4'-chloro-4,4-dimethyl-3,4,5,6-tetrahydro-[1,1'-biphenyl]-2-yl)methyl)piperazin-1-yl)-N-((4-(((2R)-4-(5-(3-((2,6-dioxopiperidin-3-yl)amino)benzyl)-2,5-diazabicyclo[2.2.2]octan-2-yl)-1-(phenylthio)butan-2-yl)amino)-3-((trifluoromethyl)sulfonyl)phenyl)sulfonyl)benzamide]
20 to 30% | 60 to 80% |  | O=C1CCC(c2cc(CN3CCC(n4cc(NC(=O)c5cnn6ccc(N7C[C@H]8C[C@@H]7CO8)nc56)c(C(F)F)n4)CC3)ccn2)C(=O)N1 (stereo partly drawn) [GT-07776, 5-((1R,4R)-2-oxa-5-azabicyclo[2.2.1]heptan-5-yl)-N-(3-(difluoromethyl)-1-(1-((2-(2,6-dioxopiperidin-3-yl)pyridin-4-yl)methyl)piperidin-4-yl)-1H-pyrazol-4-yl)pyrazolo[1,5-a]pyrimidine-3-carboxamide]
53 to 60% | 80 to 100% |  | O=C1CCC(c2ccc(CN3CCC(n4cc(NC(=O)c5cnn6ccc(N7C[C@H]8C[C@@H]7CO8)nc56)c(C(F)F)n4)CC3)nc2)C(=O)N1 (stereo partly drawn) [GT-07777, 5-((1R,4R)-2-oxa-5-azabicyclo[2.2.1]heptan-5-yl)-N-(3-(difluoromethyl)-1-(1-((5-(2,6-dioxopiperidin-3-yl)pyridin-2-yl)methyl)piperidin-4-yl)-1H-pyrazol-4-yl)pyrazolo[1,5-a]pyrimidine-3-carboxamide]
30 to 40% | 60 to 80% |  | CC(C)(O)c1cc2nn(C3CCN(Cc4cc(N5CCC(=O)NC5=O)cnc4F)CC3)cc2cc1NC(=O)c1cccc(C(F)(F)F)n1 [GT-07783, N-(2-(1-((5-(2,4-dioxotetrahydropyrimidin-1(2H)-yl)-2-fluoropyridin-3-yl)methyl)piperidin-4-yl)-6-(2-hydroxypropan-2-yl)-2H-indazol-5-yl)-6-(trifluoromethyl)picolinamide]
